# Patent US12396956B2, “Modified release compositions of a gamma-hydroxybutyric acid derivative” (XWPHARMA LTD., priority 2020, dated 2025)
# Assay: Oral bioavailability of γ-hydroxybutyric acid from the prodrug
# Conditions: in a patient, oral administration
compound,measurement,value
"CC(C)[C@H](N)C(=O)OCCCC(=O)O [compound (1), 4-((L-Valyl)oxy)butanoic acid]",oral bioavailability of γ-hydroxybutyric acid,greater than 60 % F
